Test: Waters XBridge BEH C18, 150 × 1 mm, 1.7 µm, 30 °C, 0.04 mL/min, estimated dead time 1.9 min; A: 79.7% water + 20% methanol + 0.3% acetic acid; B: 99.7% methanol + 0.3% acetic acid; gradient (min/%B) 0/0 17/58.7 17.2/100 20.2/100
Details: stereoisomer not certain

Row | Structure (SMILES) | LC retention time
1 | COc1cccc(C2(O)CCCCC2CN(C)C)c1 (stereo unspecified) | 11.4 min
2 | CC(N)Cc1ccccc1 (stereo unspecified) | 7.5 min
3 | COc1ccc2c3c1OC1C(O)C=CC4C(C2)N(C)CCC341 (stereo unspecified) | 4.8 min
4 | CCC(=O)OC(Cc1ccccc1)(c1ccccc1)C(C)CN(C)C (stereo unspecified) | 19.6 min
5 | CCNC(C)Cc1ccc2c(c1)OCO2 (stereo unspecified) | 9.4 min
6 | CCC(N)Cc1ccc2c(c1)OCO2 (stereo unspecified) | 10.3 min
7 | CN1C(=O)CCC1c1cccnc1 (stereo unspecified) | 3.6 min
8 | CCC(=O)C(CC(C)N(C)C)(c1ccccc1)c1ccccc1 (stereo unspecified) | 20.2 min
9 | COc1cc(CCN)cc(OC)c1OC | 7 min
10 | c1ccc(CN2CCNCC2)cc1 | 4.3 min
11 | COC(=O)C1=CCC2CCC1N2C (stereo unspecified) | 3.6 min
12 | CN1CCCC1c1cccnc1 (stereo unspecified) | 3.3 min
13 | CNCC1CCCCC1(O)c1cccc(OC)c1 (stereo unspecified) | 12.5 min
14 | Cn1c(=O)[nH]c2ncn(C)c2c1=O | 6.1 min
15 | COC12CCC3(CC1C(C)(O)C(C)(C)C)C1Cc4ccc(O)c5c4C3(CCN1CC1CC1)C2O5 (stereo unspecified) | 17.3 min
16 | CNC(C)Cc1ccc2c(c1)OCO2 (stereo unspecified) | 8.3 min
17 | COc1ccc(C(CN(C)C)C2(O)CCCCC2)cc1 (stereo unspecified) | 15.4 min
18 | CN1C2CCC1C(C(=O)O)C(OC(=O)c1ccccc1)C2 (stereo unspecified) | 10.7 min
19 | CCC(=O)OC(Cc1ccccc1)(c1ccccc1)C(C)CNC (stereo unspecified) | 20.1 min
20 | CN1CCC23c4c5ccc(O)c4OC2C(=O)CCC3(O)C1C5 (stereo unspecified) | 3.6 min
21 | CNC(C)Cc1ccccc1 (stereo unspecified) | 7.9 min
22 | CCN(CC)C(=O)C1C=C2c3cccc4[nH]cc(c34)CC2N(C)C1 (stereo unspecified) | 13.8 min
23 | CC(=O)Oc1ccc2c3c1OC1C(OC(C)=O)C=CC4C(C2)N(C)CCC341 (stereo unspecified) | 11.4 min

Row | Structure (SMILES) | LC retention time
24 | c1ccc(C2(N3CCCCC3)CCCCC2)cc1 | 14.7 min
25 | Cc1ccccc1-n1c(C)nc2ccccc2c1=O | 20.2 min
26 | CCC(Cc1ccc2c(c1)OCO2)NC (stereo unspecified) | 10.3 min
27 | CN(C)CCC=C1c2ccccc2CSc2ccccc21 | 19.2 min
28 | COc1ccc2c3c1OC1C(=O)CCC4(O)C(C2)N(C)CCC314 (stereo unspecified) | 5.4 min
29 | COc1ccc2c3c1OC1C(O)C=CC4C(C2)NCCC341 (stereo unspecified) | 5.1 min
30 | CC(=O)OC1C=CC2C3Cc4ccc(O)c5c4C2(CCN3C)C1O5 (stereo unspecified) | 6.4 min
31 | CCOC(=O)C1C(OC(=O)c2ccccc2)CC2CCC1N2C (stereo unspecified) | 13.9 min
32 | CNC(C)C(=O)c1ccccc1 (stereo unspecified) | 5.6 min
33 | CCOP(=O)(Sc1ccccc1)Sc1ccccc1 | 16.7 min
34 | COC(=O)C1C2CCC(CC1OC(=O)c1ccccc1)N2 (stereo unspecified) | 12.8 min
35 | COC(=O)C1C(OC(=O)c2ccccc2)CC2CCC1N2C (stereo unspecified) | 11.8 min
36 | Oc1ccc2c3c1OC1C(O)C=CC4C(C2)NCCC341 (stereo unspecified) | 3.5 min
37 | Nc1ccc2c(c1)C(c1ccccc1)=NCC(=O)N2 | 6.2 min
38 | CC(N)Cc1ccc2c(c1)OCO2 (stereo unspecified) | 8.1 min
39 | Cn1c(=O)c2c(ncn2C)n(C)c1=O | 9 min
40 | COc1ccc2c3c1OC1C(O)CCC4C(C2)N(C)CCC341 (stereo unspecified) | 4.6 min
41 | CC(N)C(O)c1ccccc1 (stereo unspecified) | 5.2 min
42 | CNC(C)C(O)c1ccccc1 (stereo unspecified) | 5.9 min
43 | CN1C2CC=C(C(=O)O)C1CC2 (stereo unspecified) | 3 min
44 | CCCc1nn(C)c2c(=O)[nH]c(-c3cc(S(=O)(=O)N4CCN(C)CC4)ccc3OCC)nc12 | 18.8 min
45 | CN1CCC23c4c5ccc(O)c4OC2C(O)C=CC3C1C5 (stereo unspecified) | 3.5 min
46 | O=C1CN=C(c2ccccc2)c2cc([N+](=O)[O-])ccc2N1 | 19.8 min

— the RepoRT retention time repository
